Measured values: patent US8916526B2, “Flavanone derivative” (National University Corporation Okayama University, priority 2009, dated 2014)
In brackets after ≈: the same amount, converted by molar mass. Where two headings read alike, the source gives them in different places.

Experiments:
[1] = system: Streptococcus pneumoniae R6; assay: In vitro infectivity assay (MIC), Exp. Ex. 2-1; type: cell-based; settings: Gram-positive, microdilution, MIC after 24 h
Escherichia coli K-12 = assay: Antibacterial activity (MIC) against Gram-negative strains, microdilution; type: cell-based; settings: for MIC (Gram-nagative) K-12: MIC after 24 h
Experimental: (§1) The antibacterial activities were measured based on broth dilution techniques of international standards (Clinical Laboratory Standards Institute: CLSI). The activities were shown by minimum inhibitory concentrations (MICs) determined by inoculating the above-mentioned strains at a concentration of about 10^5 […] into Mueller-Hinton broth (manufactured by Difco) containing 0.85% NaCl in 96-well microplates and incubating the plates at 35° C. for 24 hours. Measurement was carried out three times.

[2] = system: Pseodomonas aeruginosa PAOI; assay: as above; type: cell-based; settings: MIC after 24 h
Experimental: as §1

[3] = system: Vancomycin-resistant enterococci NCTC 12201; assay: In vitro infectivity assay (MIC), Exp. Ex. 2-1; type: cell-based; settings: Gram-positive, microdilution, MIC after 24 h
Experimental: as §1
(§2) The antibacterial activities of the compounds of the present invention against various strains such as vancomycin-resistant enterococci (VRE), vancomycin intermediate-resistant Staphylococcus aureus (VISA), methicillin-resistant Staphylococcus aureus (MRSA), and methicillin-sensitive Staphylococcus aureus (MSSA) were examined. Of the bacteria used in MIC measurement in this test example, clinical bacteria of MRSA (OM481 strain and OM584 strain) were supplied from Okayama University Hospital (Japan). An MRSA strain N315, a vancomycin intermediate-resistant Staphylococcus aureus (VISA) strain Mu50, and a methicillin-sensitive Staphylococcus aureus (MSSA) strain FDA 209P were used as controls. Vancomycin-resistant enterococcus (VRE) strains NCTC 12201 and FN-1 were supplied from the National Institute of Infectious Disease (Japan).

[4] = system: Vancomycin-resistant enterococci FN-1; assay: In vitro infectivity assay (MIC), Exp. Ex. 2-1; type: cell-based; settings: Gram-positive, microdilution, MIC after 24 h
Experimental: as §1, §2

[5] = system: Vancomycin intermediate-resistant Staphylococcus aureus Mu50; assay: In vitro infectivity assay (MIC), Exp. Ex. 2-1; type: cell-based; settings: Gram-positive, microdilution, MIC after 24 h
Experimental: as §1, §2

[6] = molecular target: T1, Escherichia coli Topoisomerase IV (Escherichia coli, UniProt P0AFI2+P20083); assay: Topoisomerase IV inhibition (decatenation kit), Exp. Ex. 2-3; type: biochemical; settings: decatenation of kDNA, 37° C., 30 minutes; read-out: IC50 (E. coli topoisomerase IV inhibitions)
T1 construct: purchased John Innes Enterprises
Experimental: (§3) Staphylococcus aureus Topoisomerase IV and Escherichia coli Topoisomerase IV were purchased from John Innes Enterprises. 1 unit of topoisomerase IV was cultured with 200 ng of kinetoplast DNA (kDNA) in 30 L of a reaction solution at 37° C. for 30 minutes under the conditions of 50 mM Tris-HCl (pH 7.5) (S. aureus)/50 mM HEPES-KOH (pH 7.6) (E. coli), 5 mM MgCl2 (S. aureus)/5 mM magnesium acetate (E. coli), 350 mM potassium glutamate (S. aureus)/100 mM potassium glutamate (E. coli), 5 mM dithiotheri (S. aureus)/10 mM dithiotheri (E. coli), 1.5 mM ATP (S. aureus)/1 mM ATP (E. coli), and 40% (w/v) glycerol. The reactions were stopped by adding 8 L of a reaction stop solution (40% sucrose, 100 mM Tris.HCl (pH 7.5), 1 mM EDTA, 0.5 mg/ml bromophenol blue). Agarose gel (1.0%) was poured into TAE (40 mM Tris acetate, 2 mM EDTA).

[7] = molecular target: T2, Staphylococcus aureus Topoisomerase IV (Staphylococcus aureus, UniProt P0C1S7+P0C1U9); assay: as above; type: biochemical
T2 construct: purchased John Innes Enterprises
Experimental: as §3

E. coli DNA gyrase = molecular target: T3, E. coli DNA gyrase (Escherichia coli, UniProt P0AES4+P0AES6); assay: DNA gyrase inhibition (supercoiling kit), Exp. Ex. 2-2; type: biochemical
T3 construct: purchased John Innes Enterprises #K0001
Experimental: As a kit for measurement of DNA gyrase of Escherichia coli, a product purchased from John Innes Enterprises (Gyrase Supercoiling assay kit #K0001) was used. Relaxed DNA was modified with gyrase into supercoiled DNA, and reaction products were separated by electrophoresis depending on the sizes of the molecular weights to examine anti-gyrase effects (IC50). 1 unit (1 U) of DNA gyrase and […] of relaxed pBR322 DNA were added to […] of the reaction solution, and the mixture was allowed to react at 37° C. for 30 minutes in the presence of 35 mM Tris-HCl (pH 7.5), 24 mM KCl, 4 mM MgCl2, 2 mM DTT, 1.8 mM spermidine, 1 mM ATP, 6.5% (w/v) glycerol, and 0.1 mg/ml BSA. The reactions were stopped using […] of a reaction stop solution (40% sucrose, 100 mM Tris-HCl (pH 7.5), 1 mM EDTA, 0.5 mg/ml bromophenol blue).

[8] = system: Methicillin sensitive S. aureus 209P; assay: In vitro infectivity assay (MIC), Exp. Ex. 2-1; type: cell-based, Staphylococcus aureus; settings: Gram-positive, microdilution, MIC after 24 h
Experimental: as §1, §2

[9] = system: Methicillin-resistant S. aureus OM481; assay: In vitro infectivity assay (MIC), Exp. Ex. 2-1; type: cell-based, Staphylococcus aureus; settings: Gram-positive, microdilution, MIC after 24 h
Experimental: as §1, §2

[10] = system: Methicillin-resistant S. aureus OM584; assay: In vitro infectivity assay (MIC), Exp. Ex. 2-1; type: cell-based, Staphylococcus aureus; settings: Gram-positive, microdilution, MIC after 24 h
Experimental: as §1, §2

[11] = system: Methicillin-resistant S. aureus N315; assay: In vitro infectivity assay (MIC), Exp. Ex. 2-1; type: cell-based, Staphylococcus aureus; settings: Gram-positive, microdilution, MIC after 24 h
Experimental: as §1, §2

[12] = system: Methicillin-resistant S. aureus COL; assay: In vitro infectivity assay (MIC), Exp. Ex. 2-1; type: cell-based, Staphylococcus aureus; settings: Gram-positive, microdilution, MIC after 24 h
Experimental: as §1, §2

[13] = decatenation of kDNA, 37° C., 30 minutes, read-out: IC50 (S. aureus topoisomerase IV inhibitions)
[14] = supercoiling activity, 37° C., 30 minutes, read-out: IC50 (E. coli DNA gyrase inhibitions)

T1 sequence (P20083 whole entry): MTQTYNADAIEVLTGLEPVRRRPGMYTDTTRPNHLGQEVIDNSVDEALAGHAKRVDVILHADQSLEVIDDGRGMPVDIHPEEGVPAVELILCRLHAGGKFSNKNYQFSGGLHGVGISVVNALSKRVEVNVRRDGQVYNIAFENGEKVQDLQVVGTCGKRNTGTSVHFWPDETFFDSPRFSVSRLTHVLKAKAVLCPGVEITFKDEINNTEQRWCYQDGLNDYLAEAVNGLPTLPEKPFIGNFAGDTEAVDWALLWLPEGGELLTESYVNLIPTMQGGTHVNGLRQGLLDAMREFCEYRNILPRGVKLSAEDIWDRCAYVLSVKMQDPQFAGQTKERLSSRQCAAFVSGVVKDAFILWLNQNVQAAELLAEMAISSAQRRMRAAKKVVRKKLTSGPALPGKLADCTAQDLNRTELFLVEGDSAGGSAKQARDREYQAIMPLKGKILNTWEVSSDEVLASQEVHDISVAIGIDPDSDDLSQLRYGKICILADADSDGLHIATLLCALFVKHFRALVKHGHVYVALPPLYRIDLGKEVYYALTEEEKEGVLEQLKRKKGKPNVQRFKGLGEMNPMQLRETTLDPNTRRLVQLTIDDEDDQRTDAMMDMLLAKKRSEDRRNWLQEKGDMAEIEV
T1 sequence (P0AFI2 whole entry): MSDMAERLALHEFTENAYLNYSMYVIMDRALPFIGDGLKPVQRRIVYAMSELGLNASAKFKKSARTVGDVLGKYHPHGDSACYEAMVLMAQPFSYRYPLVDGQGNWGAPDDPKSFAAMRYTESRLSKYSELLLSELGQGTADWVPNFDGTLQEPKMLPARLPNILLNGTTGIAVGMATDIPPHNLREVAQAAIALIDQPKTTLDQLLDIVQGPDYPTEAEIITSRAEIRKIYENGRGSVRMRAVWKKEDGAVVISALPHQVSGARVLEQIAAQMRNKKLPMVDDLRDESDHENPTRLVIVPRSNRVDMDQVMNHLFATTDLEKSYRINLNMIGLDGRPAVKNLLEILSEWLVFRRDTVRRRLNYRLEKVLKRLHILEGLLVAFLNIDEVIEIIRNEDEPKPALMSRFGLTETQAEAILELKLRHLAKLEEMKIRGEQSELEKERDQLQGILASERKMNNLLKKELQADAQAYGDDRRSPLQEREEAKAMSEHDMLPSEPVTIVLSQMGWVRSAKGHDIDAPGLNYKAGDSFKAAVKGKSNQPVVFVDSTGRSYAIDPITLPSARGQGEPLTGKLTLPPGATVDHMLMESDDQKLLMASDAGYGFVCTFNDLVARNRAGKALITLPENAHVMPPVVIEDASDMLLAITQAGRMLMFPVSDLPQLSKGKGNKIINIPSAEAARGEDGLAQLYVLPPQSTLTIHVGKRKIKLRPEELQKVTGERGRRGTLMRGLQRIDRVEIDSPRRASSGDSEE
T3 sequence (P0AES4 whole entry, one chain of several): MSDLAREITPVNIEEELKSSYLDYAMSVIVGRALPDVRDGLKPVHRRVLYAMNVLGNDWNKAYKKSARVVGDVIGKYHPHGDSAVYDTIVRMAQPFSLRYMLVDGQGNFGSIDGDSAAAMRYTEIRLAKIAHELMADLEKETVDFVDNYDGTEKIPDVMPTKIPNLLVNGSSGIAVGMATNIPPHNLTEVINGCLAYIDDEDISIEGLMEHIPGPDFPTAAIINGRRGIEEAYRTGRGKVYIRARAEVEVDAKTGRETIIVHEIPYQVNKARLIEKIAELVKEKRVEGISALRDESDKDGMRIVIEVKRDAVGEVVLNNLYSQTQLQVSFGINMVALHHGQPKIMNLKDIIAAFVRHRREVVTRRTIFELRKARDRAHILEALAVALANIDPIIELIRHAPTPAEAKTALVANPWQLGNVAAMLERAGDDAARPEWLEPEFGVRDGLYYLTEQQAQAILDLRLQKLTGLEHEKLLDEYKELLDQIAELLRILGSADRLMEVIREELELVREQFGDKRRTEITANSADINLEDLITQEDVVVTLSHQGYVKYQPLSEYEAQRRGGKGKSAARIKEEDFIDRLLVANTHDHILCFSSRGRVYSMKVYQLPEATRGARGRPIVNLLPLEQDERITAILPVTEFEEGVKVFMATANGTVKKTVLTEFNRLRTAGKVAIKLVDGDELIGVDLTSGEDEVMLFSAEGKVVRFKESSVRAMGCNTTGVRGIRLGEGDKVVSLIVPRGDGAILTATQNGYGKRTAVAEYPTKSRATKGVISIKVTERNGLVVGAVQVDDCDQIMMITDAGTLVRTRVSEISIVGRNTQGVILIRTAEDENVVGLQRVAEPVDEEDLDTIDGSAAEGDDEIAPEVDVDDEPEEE
T2 sequence (P0C1U9 whole entry): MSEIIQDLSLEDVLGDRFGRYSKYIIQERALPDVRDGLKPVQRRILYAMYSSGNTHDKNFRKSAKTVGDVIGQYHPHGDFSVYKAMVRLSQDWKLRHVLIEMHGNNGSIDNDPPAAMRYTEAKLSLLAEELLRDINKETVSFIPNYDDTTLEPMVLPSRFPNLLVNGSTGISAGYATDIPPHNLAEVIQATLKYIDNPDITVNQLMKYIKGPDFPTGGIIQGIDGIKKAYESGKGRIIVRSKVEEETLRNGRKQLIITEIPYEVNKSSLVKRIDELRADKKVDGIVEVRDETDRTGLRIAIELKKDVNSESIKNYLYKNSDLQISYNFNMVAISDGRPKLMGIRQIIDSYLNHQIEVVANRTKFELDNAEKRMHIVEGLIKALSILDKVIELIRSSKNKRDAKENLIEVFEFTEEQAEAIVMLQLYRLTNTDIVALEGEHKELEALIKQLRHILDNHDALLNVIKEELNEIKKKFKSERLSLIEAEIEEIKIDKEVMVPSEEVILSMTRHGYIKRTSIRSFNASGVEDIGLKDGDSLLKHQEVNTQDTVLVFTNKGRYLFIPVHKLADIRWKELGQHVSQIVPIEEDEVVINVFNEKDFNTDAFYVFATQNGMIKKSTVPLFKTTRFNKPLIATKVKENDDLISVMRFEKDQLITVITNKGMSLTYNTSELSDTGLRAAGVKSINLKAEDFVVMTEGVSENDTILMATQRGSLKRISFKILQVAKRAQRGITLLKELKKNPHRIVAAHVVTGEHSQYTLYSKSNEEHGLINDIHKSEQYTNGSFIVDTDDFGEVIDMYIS
T2 sequence (P0C1S7 whole entry): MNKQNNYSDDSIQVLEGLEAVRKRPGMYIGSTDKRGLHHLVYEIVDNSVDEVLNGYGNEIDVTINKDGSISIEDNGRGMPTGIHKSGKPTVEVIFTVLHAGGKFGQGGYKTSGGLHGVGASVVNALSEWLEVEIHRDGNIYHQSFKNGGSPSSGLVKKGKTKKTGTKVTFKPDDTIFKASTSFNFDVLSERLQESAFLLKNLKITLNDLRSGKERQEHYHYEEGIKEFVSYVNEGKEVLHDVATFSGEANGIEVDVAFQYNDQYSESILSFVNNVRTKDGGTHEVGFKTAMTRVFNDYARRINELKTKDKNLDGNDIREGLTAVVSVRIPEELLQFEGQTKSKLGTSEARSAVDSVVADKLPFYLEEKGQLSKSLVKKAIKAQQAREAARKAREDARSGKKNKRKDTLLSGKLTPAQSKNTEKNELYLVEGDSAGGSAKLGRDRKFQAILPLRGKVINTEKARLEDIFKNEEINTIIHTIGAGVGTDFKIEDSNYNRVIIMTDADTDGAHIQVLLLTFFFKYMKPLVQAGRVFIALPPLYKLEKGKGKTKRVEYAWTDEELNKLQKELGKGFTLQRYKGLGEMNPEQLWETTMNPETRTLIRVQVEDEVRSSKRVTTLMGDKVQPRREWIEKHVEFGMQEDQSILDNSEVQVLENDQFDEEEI

| SMILES | MIC S. Pneumoniae R6 [1] [µg/mL] | MIC (Gram-nagative) K-12 (Escherichia coli K-12) [µg/mL] | MIC (Gram-nagative) PAO1 [2] [µg/mL] | MIC VRE NCTC 12201 [3] [µg/mL] | MIC VRE FN-1 [4] [µg/mL] | MIC VISA Mu50 [5] [µg/mL] | IC50 [6] [µM] | IC50 [7, 13] [nM] | IC50 (E. coli DNA gyrase; [14]) [nM] | MIC MSSA 209P [8] [µg/mL] | MIC MRSA OM481 [9] [µg/mL] | MIC MRSA OM584 [10] [µg/mL] | MIC MRSA N315 [11] [µg/mL] | MIC MRSA COL [12] [µg/mL] | further results |
| --- | --- | --- | --- | --- | --- | --- | --- | --- | --- | --- | --- | --- | --- | --- | --- |
| Cc1ccc(CCC(=O)OC[C@H]2O[C@@H](Oc3c(-c4ccc(O)c(O)c4)oc4cc(O)cc(O)c4c3=O)[C@H](OC(=O)CCc3ccc(C)cc3)[C@@H](O)[C@H]2O)cc1 [Compound 14h, 2-(3′,4′-Dihydroxyphenyl)-5,7-dihydroxy-3-β-D-{2″,6″-di-O-[3′″-(4-methylphenylpropanoyl)]}galactosyl-4H-chromen-4-one] | 0.25 (≈ 0.33 µM) | >128 | >128 | 0.5 (≈ 0.661 µM) | 0.5 (≈ 0.661 µM) | 0.5 (≈ 0.661 µM) | 7.46 | 1490 | 2090 | 0.25 (≈ 0.33 µM) | 0.25 (≈ 0.33 µM) | 0.25 (≈ 0.33 µM) | 0.25 (≈ 0.33 µM) | 1 (≈ 1.32 µM) | – |
| O=C(CCc1ccc(F)cc1)OC[C@H]1O[C@@H](Oc2c(-c3ccc(O)c(O)c3)oc3cc(O)cc(O)c3c2=O)[C@H](OC(=O)CCc2ccc(F)cc2)[C@@H](O)[C@H]1O [Compound 14i, 2-(3′,4′-Dihydroxyphenyl)-5,7-dihydroxy-3-β-D-{2″,6″-di-O-[3′″-(4-fluorophenylpropanoyl)]}galactosyl-4H-chromen-4-one] | 0.13 (≈ 0.17 µM) | >128 | >128 | 0.25 (≈ 0.327 µM) | 0.25 (≈ 0.327 µM) | 0.5 (≈ 0.654 µM) | 7.16 | 220 | 780 | 0.13 (≈ 0.17 µM) | 0.13 (≈ 0.17 µM) | 0.13 (≈ 0.17 µM) | 0.13 (≈ 0.17 µM) | 0.5 (≈ 0.654 µM) | – |
| O=C(CCCc1ccc(F)cc1)OC[C@H]1O[C@@H](Oc2c(-c3ccc(O)c(O)c3)oc3cc(O)cc(O)c3c2=O)[C@H](OC(=O)CCCc2ccc(F)cc2)[C@@H](O)[C@H]1O [Compound 14j, 2-(3′,4′-Dihydroxyphenyl)-5,7-dihydroxy-3-β-D-{2″,6″-di-O-[3′″-(4-fluorophenylbutanoyl)]}galactosyl-4H-chromen-4-one] | 2 (≈ 2.52 µM) | >128 | >128 | 8 (≈ 10.1 µM) | 8 (≈ 10.1 µM) | 4 (≈ 5.05 µM) | 8.96 | 2940 | 2980 | 4 (≈ 5.05 µM) | 2 (≈ 2.52 µM) | 2 (≈ 2.52 µM) | 4 (≈ 5.05 µM) | 16 (≈ 20.2 µM) | – |
| O=C(CCCCc1ccc(F)cc1)OC[C@H]1O[C@@H](Oc2c(-c3ccc(O)c(O)c3)oc3cc(O)cc(O)c3c2=O)[C@H](OC(=O)CCCCc2ccc(F)cc2)[C@@H](O)[C@H]1O [Compound 14k, 2-(3′,4′-Dihydroxyphenyl)-5,7-dihydroxy-3-β-D-{2″,6″-di-O-[3′″-(4-fluorophenylpentanoyl)]}galactosyl-4H-chromen-4-one] | 8 (≈ 9.75 µM) | >128 | >128 | 16 (≈ 19.5 µM) | 16 (≈ 19.5 µM) | 16 (≈ 19.5 µM) | > 12 | 4050 | 5020 | 4 (≈ 4.87 µM) | 4 (≈ 4.87 µM) | 4 (≈ 4.87 µM) | 2 (≈ 2.44 µM) | 16 (≈ 19.5 µM) | – |
| Cc1ccc(CCC(=O)OCC2OC(Oc3c(-c4ccc(O)c(O)c4)oc4cc(O)cc(O)c4c3=O)C(OC(=O)CCc3ccc(C)cc3)C(O)C2O)cc1 [Compound 14l, 2-(3′,4′-Dihydroxyphenyl)-5,7-dihydroxy-3-β-D-{2″,6″-di-O-[3′″-(4-methylphenylpropanoyl)]}galactosyl-4H-chromen-4-one] | – | – | – | – | – | – | 7.99 | – | – | – | – | – | – | – | MIC ([1]; Streptococcus pneumoniae, R6, read-out: MIC S. Pneumoniae R6): 32 µg/mL (≈ 42.3 µM); MIC (Escherichia coli K-12; K12, MIC after 24 h, read-out: MIC (Gram-nagative) K-12): > 128 µg/mL; MIC ([2]; read-out: MIC (Gram-nagative) PAO1): > 128 µg/mL; MIC ([3]; Enterococcus, NCTC 12201 / VRE, read-out: MIC VRE NCTC 12201): 32 µg/mL (≈ 42.3 µM); MIC ([4]; Enterococcus, VRE, read-out: MIC VRE FN-1): 32 µg/mL (≈ 42.3 µM); MIC ([5]; Staphylococcus aureus, VISA, read-out: MIC VISA Mu50): 16 µg/mL (≈ 21.1 µM); IC50 [7]: 2570 nM; IC50 (E. coli DNA gyrase): 1790 nM; MIC ([8]; Staphylococcus aureus, 209P / MSSA, read-out: MIC MSSA 209P): 16 µg/mL (≈ 21.1 µM); MIC ([9]; Staphylococcus aureus, MRSA, read-out: MIC MRSA OM481): 16 µg/mL (≈ 21.1 µM); MIC ([10]; Staphylococcus aureus, MRSA, read-out: MIC MRSA OM584): 16 µg/mL (≈ 21.1 µM); MIC ([11]; Staphylococcus aureus, MRSA, read-out: MIC MRSA N315): 16 µg/mL (≈ 21.1 µM); MIC ([12]; Staphylococcus aureus, MRSA): 32 µg/mL (≈ 42.3 µM) |
